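Where inhibition never reached the appropriate level, the endpoint shown equals the highest concentration tested. Otherwise, values were interpolated linearly from a five-concentration, 48-hour dose response in 96-well plates. TGI is the concentration that stops growth completely.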
Assays:
Test in all cases: growth of human tumour cells (NCI), 48 h
T-47D breast = test system: T-47D breast
HOP-18 NSCLC = test system: HOP-18 NSCLC
KM20L2 colon = test system: KM20L2 colon
MDA-N = test system: MDA-N
LXFL 529 NSCLC = test system: LXFL 529 NSCLC
M19-MEL melanoma = test system: M19-MEL melanoma

Row | Structure (SMILES) | TGI (KM20L2 colon) [µM] | TGI (MDA-N) [µM] | other results
1 | C/C(=N/NC(=O)c1ccncc1)C(F)(F)F |  |  | TGI (T-47D breast): > 100 µM
2 | CC(=O)CCC#Cc1ccccc1C(=O)C(C)=[N+]=[N-] | > 100 |  | TGI (HOP-18 NSCLC): > 100 µM
3 | COC(=O)/C=C1\SC2(OC1=Nc1ccccc1)C1CC3CC(C1)CC2C3 (stereo not drawn) |  | > 100 | 
4 | CN1C2CCC1/C(=C/c1cccc3c1OCO3)C(=O)/C2=C\c1cccc2c1OCO2 | > 100 |  | TGI (LXFL 529 NSCLC): > 100 µM; TGI (M19-MEL melanoma): > 100 µM
5 | CC(C)(C)[Si](C)(C)OCC1OC(n2cnc3c(N)ncnc32)C2OC(=S)OC12 (stereo not drawn) |  | 94 | 

— PubChem BioAssay (NCI)
